{"source": "patent US20050233361A1", "about": "“PPARdelta assay” (priority 2004, published 2005)", "key": {"ANGPTL4 gene expression [1]": {"test_system": "ANGPTL4 gene expression", "assay": "ANGPTL4 gene expression in C2C12 cells by qPCR", "assay_type": "cell-based", "details": "C2C12 mouse muscle cells, S12 reference, vs control = 1", "description": "The culturing of the C2C12 mouse muscle cells, RNA extraction, cDNA synthesis and purifications were performed as described in Example 1.\nRT-PCR was performed with the Quantitech SYBR Green kit from Qiagen according to the manufacturer's manual. Each component were added to 96 well plate: 25 μl master mix, 0.16 μl of each primer (100 μM stock solution), 22.7 μl H2O and 2 μl cDNA.\nThe program consists of three different steps: initial denaturation of template and heat-activation of the Taq DNA polymerase (95° C., 15 min), cycling (95° C. denaturation, 60° C. primer-template annealing, 72° C. elongation, fluorescence aquisition), and final melting (melting curve 55 to 95° C., measurements in 0.5° C. steps).\nThe relative quantification is based on the relative expression of the target gene versus a reference gene. […] The cycle number at which threshold fluorescence is reached, is called ct value. […] The relative ct value of a target gene compared to the ct value of an internal reference in the control or untreated sample is expressed as Δct.control=ctreference of control−cttarget of control and in a treated, unknown sample as Δct.sample=ctreference of sample−cttarget of sample.\nAs internal reference for quantitative studies the ribosomal protein S12 gene expression was used. […] Setting of fluorescence threshold is determined by the light cycler software. The obtained ct values (duplicates for one sample, two samples per condition) were exported into Microsoft Excel and analyzed as described above."}, "ANGPTL4 gene expression [2]": {"test_system": "ANGPTL4 gene expression", "assay": "ANGPTL4 gene expression in C2C12 cells by Affymetrix micro-arrays", "assay_type": "cell-based", "details": "C2C12 mouse muscle cells, 20 hours, vs control = 1.00", "description": "Cell culture: C2C12 cells (ATCC: CRL1772)\nCells were cultured in DMEM (5 mM glucose) supplemented with 10% heat-inactivated fetal calf serum (FCS). Complete medium was filtered through 0.2 μm pores before use. Differentiation was performed in 6 well dishes by serum depleting the medium (DMEM High Glucose, 2% FCS) when cells reach confluency. Cell cultures were then incubated for 5 days at 37° C. in a 90%-humidified and 95%-air-5%-CO2 sterile atmosphere to allow differentiation.\nPPAR Ligands were dissolved in 100% DMSO and added to medium to adjust 0.1% (v/v) DMSO final concentration and cells were incubated with ligands for 20 hours under normal growth conditions. Three replicates were done for each condition.\nRNA extraction procedure has been performed with Qiagen QIAschredder and RNeasy kits.\nApproximately 1*106 pelleted cells per sample were resuspended in 350 μl guanidine thiocyanate containing RLT. Samples were loaded on a QIAshredder-column and centrifuged at full speed for 2 minutes to homogenize the lysates. After adding 350 μl ethanol to the flow-through for better binding conditions, samples were applied to RNeasy spin. For the first wash step 350 μl RW1 buffer were pipeted into the column. Then 10 μL DNase solution gently mixed with 70 μl RDD buffer were applied onto the column and incubated for 15 minutes at room temperature to remove genomic DNA. […]"}}, "data": [{"smiles": "Cc1nc(-c2ccc(C(F)(F)F)cc2)sc1C(Sc1ccc(OCC(=O)O)c2ccccc12)C1CCCC1", "note": "(racemic) [C, [rac]-(4-{Cyclopentyl-[4-methyl-2-(4-trifluoromethyl-penyl)-thiazol-5-yl]-methylsulfanyl}-naphtalen-1-yloxy}-acetic]", "values": [{"measurement": "ANGPTL4 gene expression fold changes", "setting": "ANGPTL4 gene expression [1]; 500 nM", "value": 10.06, "unit": "fold"}, {"measurement": "ANGPTL4 gene expression fold changes", "setting": "ANGPTL4 gene expression [2]; 500 nM", "value": 8.87, "unit": "fold"}]}, {"smiles": "CC(C)(Oc1ccc(C(=O)c2ccc(Cl)cc2)cc1)C(=O)O", "note": "[A, 2-[4-(4-Chlorobenzoyl)-phenoxy]-2-methylpropanoic acid]", "values": [{"measurement": "ANGPTL4 gene expression fold changes", "setting": "ANGPTL4 gene expression [1]; 300 μM", "value": 2.61, "unit": "fold"}, {"measurement": "ANGPTL4 gene expression fold changes", "setting": "ANGPTL4 gene expression [2]; 300 μM", "value": 1.99, "unit": "fold"}]}, {"smiles": "Cc1cc(N(C)Cc2sc(-c3ccc(C(F)(F)F)cc3)nc2C)ccc1OCC(=O)O", "note": "[D, (2-Methyl-4-{Methyl-[4-methyl-2-(4-trifluoromethyl-phenyl)-thiazol-5-ylmethyl]-amino}-phenoxy)-acetic acid]", "values": [{"measurement": "ANGPTL4 gene expression fold changes", "setting": "ANGPTL4 gene expression [1]; 500 nM", "value": 13.51, "unit": "fold"}]}]}
